Test results from patent publication US6355799B1, “Substituted benzene compounds, process for their preparation, and herbicidal and defoliant compositions containing them” (ISK Americas Incorporated, priority 1997, dated 2002).

Assays:
Format in all cases: in vivo
[1] = tested on: redroot pigweed (Amaranthus retroflexus, AMARE); test: Pre-emerge test, greenhouse herbicide activity screening; conditions: rated 14 days after application, 0 = no damage, 100 = complete death
In short: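 Compounds in acetone were track-sprayed at 187 l/ha, 15–1000 g ai/ha, onto sandy loam pots. Pre-emerge seeds were sown one day before spraying, with surface watering afterwards. Post-emerge plants were at the 2–3 leaf stage and sprayed with 0.25% v/v non-ionic surfactant. Injury was rated 0–100 at 14 days.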

[2] = tested on: barnyardgrass (Echinochloa crus-galli, ECHCG); test: as above; conditions: rated 14 days after application, 0 = no damage, 100 = complete death
In short: (§1)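 Compounds in acetone were track-sprayed at 15-1000 g ai/ha (187 l/ha) on sandy loam pots: pre-emerge one day after seeding, post-emerge at 2-3 leaf stage with 0.25% v/v non-ionic surfactant. Phytotoxicity was rated 14 days later on a 0 (no damage) to 100 (complete death) scale.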

[3] = tested on: green foxtail (Setaria viridis, SETVI); test: as above; conditions: rated 14 days after application, 0 = no damage, 100 = complete death
In short: as §1

[4] = tested on: ivyleaf morningglory (Ipomoea hederacea, IPOHE); test: as above; conditions: rated 14 days after application, 0 = no damage, 100 = complete death
In short: as §1

[5] = tested on: johnsongrass (Sorghum halepense, SORHA); test: as above; conditions: rated 14 days after application, 0 = no damage, 100 = complete death
In short: as §1

[6] = tested on: lambsquarters (Chenopodium album, CHEAL); test: as above; conditions: rated 14 days after application, 0 = no damage, 100 = complete death
In short: as §1

[7] = tested on: large crabgrass (Digitaria sanguinalis, DIGSA); test: as above; conditions: rated 14 days after application, 0 = no damage, 100 = complete death
In short: as §1

[8] = tested on: sicklepod (Cassia obtusifolia, CASOB); test: as above; conditions: rated 14 days after application, 0 = no damage, 100 = complete death
In short: as §1

[9] = tested on: velvetleaf (Abutilon theophrasti, ABUTH); test: as above; conditions: rated 14 days after application, 0 = no damage, 100 = complete death
In short: as §1

[10] = tested on: field corn (Zea mays L., var. Dekalb 535, CORN); test: Pre-emerge test, crop safety; conditions: rated 14 days after application, 0 = no damage, 100 = complete death
In short: as §1

[11] = tested on: upland rice (Oryza sp., var. Tebonnet, RICE); test: Pre-emerge test, crop safety; conditions: rated 14 days after application, 0 = no damage, 100 = complete death
In short: as §1

[12] = tested on: barnyardgrass (Echinochloa crus-galli, ECHCG); test: Post-emerge test, greenhouse herbicide activity screening; conditions: post-emerge, 14 days after application, rating scale 0-100
In short: (§2)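 Applied at 15–1000 g ai/ha from acetone in 187 l/ha spray volume. Post-emergence applications included 0.25% v/v non-ionic surfactant and reached plants sown 8–21 days before. Pre-emergence applications were incorporated by surface watering. Efficacy or crop damage was rated on a 0–100 scale after 14 days.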

[13] = tested on: common ragweed (Ambrosia artemisizfolia L., AMBEL); test: as above; conditions: post-emerge, 14 days after application, rating scale 0-100
In short: as §2

[14] = tested on: green foxtail (Setaria viridis, SETVI); test: as above; conditions: post-emerge, 14 days after application, rating scale 0-100
In short: as §2

[15] = tested on: ivyleaf morningglory (Ipomoea hederacea, IPOHE); test: as above; conditions: post-emerge, 14 days after application, rating scale 0-100
In short: as §2

[16] = tested on: johnsongrass (Sorghum halepense, SORHA); test: as above; conditions: post-emerge, 14 days after application, rating scale 0-100
In short: as §2

[17] = tested on: lambsquarters (Chenopodium album, CHEAL); test: as above; conditions: post-emerge, 14 days after application, rating scale 0-100
In short: as §2

[18] = tested on: large crabgrass (Digitaria sanguinalis, DIGSA); test: as above; conditions: post-emerge, 14 days after application, rating scale 0-100
In short: as §2

[19] = tested on: redroot pigweed (Amaranthus retroflexus, AMARE); test: as above; conditions: post-emerge, 14 days after application, rating scale 0-100
In short: as §2

[20] = tested on: sicklepod (Cassia obtusifolia, CASOB); test: as above; conditions: post-emerge, 14 days after application, rating scale 0-100
In short: as §2

[21] = tested on: velvetleaf (Abutilon theophrasti, ABUTH); test: as above; conditions: post-emerge, 14 days after application, rating scale 0-100
In short: as §2

[22] = tested on: field corn (Zea mays L., var. Dekalb 535, CORN); test: Post-emerge test, crop safety; conditions: post-emerge, 14 days after application, rating scale 0-100
In short: as §1

[23] = tested on: upland rice (Oryza sp., var. Tebonnet, RICE); test: Post-emerge test, crop safety; conditions: post-emerge, 14 days after application, rating scale 0-100
In short: as §1

COc1c(Cl)cc(F)c(-n2c(=O)cc(C(F)(F)F)n(C)c2=O)c1NC(=O)c1cccc2ccccc12 [2-74]
0: Pre-emerge Herbicidal Activity, phytotoxicity rating (0-100), ECHCG ([2]; 63 g ai/ha) | Pre-emerge Herbicidal Activity, phytotoxicity rating (0-100), IPOHE ([4]; 63 g ai/ha) | Pre-emerge Herbicidal Activity, phytotoxicity rating (0-100), SORHA ([5]; 63 g ai/ha) | Pre-emerge phytotoxicity rating (0-100), crop damage, CORN ([10]; 63 g ai/ha) | phytotoxicity rating ECHCG ([12]; 63 g ai/ha) | phytotoxicity rating ECHCG ([12]; 250 g ai/ha) | phytotoxicity rating SETVI ([14]; 63 g ai/ha) | phytotoxicity rating SORHA ([16]; 63 g ai/ha) | phytotoxicity rating SORHA ([16]; 250 g ai/ha) | phytotoxicity rating DIGSA ([18]; 63 g ai/ha) | phytotoxicity rating DIGSA ([18]; 250 g ai/ha) | phytotoxicity rating CORN ([22]; 63 g ai/ha)
20: Pre-emerge Herbicidal Activity, phytotoxicity rating (0-100), DIGSA ([7]; 63 g ai/ha) | phytotoxicity rating SETVI ([14]; 250 g ai/ha)
25: phytotoxicity rating RICE ([23]; 63 g ai/ha)
70: Pre-emerge Herbicidal Activity, phytotoxicity rating (0-100), SETVI ([3]; 63 g ai/ha) | Pre-emerge Herbicidal Activity, phytotoxicity rating (0-100), CASOB ([8]; 250 g ai/ha) | phytotoxicity rating AMBEL ([13]; 63 g ai/ha) | phytotoxicity rating CHEAL ([17]; 63 g ai/ha) | phytotoxicity rating CHEAL ([17]; 250 g ai/ha) | phytotoxicity rating CASOB ([20]; 250 g ai/ha)
100: Pre-emerge Herbicidal Activity, phytotoxicity rating (0-100), AMARE ([1]; 63 g ai/ha) | Pre-emerge Herbicidal Activity, phytotoxicity rating (0-100), AMARE ([1]; 250 g ai/ha) | Pre-emerge Herbicidal Activity, phytotoxicity rating (0-100), ECHCG ([2]; 250 g ai/ha) | Pre-emerge Herbicidal Activity, phytotoxicity rating (0-100), SETVI ([3]; 250 g ai/ha) | Pre-emerge Herbicidal Activity, phytotoxicity rating (0-100), SORHA ([5]; 250 g ai/ha) | Pre-emerge Herbicidal Activity, phytotoxicity rating (0-100), CHEAL ([6]; 63 g ai/ha) | Pre-emerge Herbicidal Activity, phytotoxicity rating (0-100), CHEAL ([6]; 250 g ai/ha) | Pre-emerge Herbicidal Activity, phytotoxicity rating (0-100), DIGSA ([7]; 250 g ai/ha) | Pre-emerge Herbicidal Activity, phytotoxicity rating (0-100), ABUTH ([9]; 63 g ai/ha) | Pre-emerge Herbicidal Activity, phytotoxicity rating (0-100), ABUTH ([9]; 250 g ai/ha) | phytotoxicity rating AMARE ([19]; 250 g ai/ha) | phytotoxicity rating ABUTH ([21]; 63 g ai/ha) | phytotoxicity rating ABUTH ([21]; 250 g ai/ha)
50: Pre-emerge Herbicidal Activity, phytotoxicity rating (0-100), IPOHE ([4]; 250 g ai/ha) | phytotoxicity rating RICE ([23]; 250 g ai/ha)
30: Pre-emerge phytotoxicity rating (0-100), crop damage, RICE ([11]; 63 g ai/ha) | phytotoxicity rating CASOB ([20]; 63 g ai/ha)
95: phytotoxicity rating AMBEL ([13]; 250 g ai/ha) | phytotoxicity rating AMARE ([19]; 63 g ai/ha)
40: Pre-emerge Herbicidal Activity, phytotoxicity rating (0-100), CASOB ([8]; 63 g ai/ha)
15: Pre-emerge phytotoxicity rating (0-100), crop damage, CORN ([10]; 250 g ai/ha) | phytotoxicity rating CORN ([22]; 250 g ai/ha)
60: Pre-emerge phytotoxicity rating (0-100), crop damage, RICE ([11]; 250 g ai/ha) | phytotoxicity rating IPOHE ([15]; 63 g ai/ha) | phytotoxicity rating IPOHE ([15]; 250 g ai/ha)
